The values below are quoted from earlier work in patent US6620425B1, “Food supplements and methods comprising lipoic acid and creatine” (Muscletech Research and Development Inc., priority 1998, dated 2003).

The conditions of series [1]: insulin-sensitive individuals.

In the case of `O=C(O)CCCCC1CCSS1` (stereo not drawn) [lipoic acid, 6,8-dithio octanoic acid], under “in diabetics”, the “increase of the metabolic clearance rate of glucose” value is recorded as 50%. Further, the “the body's utilization of blood sugar” value (in type II diabetics) is reported as “significantly increase”.

For chromium, the “improvement of glucose tolerance” value in series [1] is “up to 50%”.
